Here are results for 14 molecules from PubChem BioAssay (NCI).

Experiment in all cases: NCI tumour cell line growth inhibition, 48 h
Assay [1] concerns MDA-N.
In assay [2] the test system is NCI-H522 lung.
Assay [3] deals with UO-31 renal.
Assay [4] has as its system NCI-H23 lung.
The test system of assay [5] is SNB-75 CNS.
In assay [6] the test system is RXF 393 renal.
The subject of assay [7] is SK-MEL-28 melanoma.
For assay [8], the system named is T-47D breast.
The test system of assay [9] is OVCAR-8 ovarian.
Assay [10] has as its system HCC-2998 colon.

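In this assay, cells in 96-well plates receive the compound at five concentrations for 48 hours. Endpoints are linearly interpolated between the surrounding concentrations. TGI denotes the concentration required for complete inhibition of growth.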 A value given as a limit tells only on which side of the number the result lay.

For the molecule `Cc1cnc2[nH]c(-c3cccc(F)c3)cc(=O)c2c1`, the TGI in assay [1] was 0.027 µM; in assay [2] it was 0.108 µM; in [3], above 100 µM; in [4], 2.03 µM; in assay [5] it was above 100 µM; in [6], above 100 µM. The TGI in assay [7] is above 100 µM; in assay [8], above 100 µM; in assay [9], 1.5 µM.
Take `CCOc1ccc(N=Nc2ccc3cc(/C(C)=N/NC(=O)/C(C#N)=C\c4ccc(N(CCC#N)CCC#N)cc4)c(=O)oc3c2)cc1`: the TGI in assay [1], in assay [2], in assay [3], in [4], in assay [10] and in assay [5] was above 10 µM in each case. For the same molecule, the TGI in [6], in assay [7], in [8] and in assay [9] was above 10 µM in each case.
Take `CC(=O)OCC(=O)O[C@@H]1[C@H]2[C@@H](OC(=O)c3ccccc3)[C@@H](C)C[C@]2(O)[C@H](OC(C)=O)[C@@]2(C)C[C@]1(OC(C)=O)C[C@H]1C(=O)C(C)(C)[C@@H](OC(C)=O)[C@@H]12`: the TGI in [1] was above 25 µM; in assay [2], above 25 µM; in assay [3] it was above 6.83 µM; in [4], above 25 µM; in assay [10], above 25 µM; in assay [5], above 25 µM. For the same molecule, the TGI in assay [6], in [7], in assay [8] and in assay [9] was above 25 µM each time.
For the molecule `C=C(C)[C@H]1CC(=O)/C(C)=C\CC/C(C)=C/CC[C@@]2(C)O[C@@H]2C1`, the TGI was 94.4 µM in [1]; 48.4 µM in [3]; 51.8 µM in assay [4]; 93.1 µM in assay [10]; above 100 µM in [5]; 64.6 µM in assay [7]. For the same molecule, the TGI in assay [9] is above 100 µM.
With `CC1(C)OC[C@@H](C[C@H](O)COCc2ccccc2)O1`, the TGI in [1], in [2], in [3], in assay [4], in assay [10] and in assay [5] was above 100 µM throughout. Besides, the TGI in [6], in [7], in assay [8] and in assay [9] was above 100 µM each time.
Regarding `CCCCN1C(=O)CC2[C@@H]3CCc4cc(OC)ccc4C3CC[C@]2(C)C1=O` (some centres not stated), the TGI in assay [1], in [3], in [4], in assay [10], in assay [5] and in assay [6] was above 10 µM in each case. Further, the TGI in assay [7], in [8] and in [9] was above 10 µM each time.
Take `Cn1nc2c(c1N)Cc1c(nn(C)c1N)-c1ccccc1-2`: the TGI in assay [1], in assay [2], in assay [3], in [4], in assay [10] and in assay [6] was above 100 µM in each case. For the same molecule, the TGI in assay [7], in assay [8] and in assay [9] was above 100 µM in each case.
`CC(=O)N(C)c1ccc(Nc2ccnc3ccc4nn(C)nc4c23)cc1`: the TGI in assay [1] was above 100 µM; in assay [2], 41.2 µM; in assay [3] it was 29.2 µM; in assay [4], 82.1 µM; in assay [5] it was above 100 µM; in assay [6], 48.1 µM. For the same molecule, the TGI in assay [7] was 73.1 µM; in assay [8] it was 76.1 µM; in assay [9], above 100 µM.
For `Cc1cc(S(=O)(=O)Nc2n[nH]c(Nc3ccccc3)n2)c(SCC(=O)O)cc1Cl`, the TGI in [1], in assay [2], in [3], in assay [4], in assay [10] and in assay [5] was above 100 µM in each case. The TGI in [6], in assay [7], in assay [8] and in assay [9] was above 100 µM each time.
With `CC1=C(C(=O)NC2CCCCC2)CC(C(=O)NC2CCCCC2)=C(C)N1`, the TGI in assay [1] is above 100 µM; in assay [2], above 100 µM; in assay [3], above 100 µM; in assay [4], above 100 µM; in [10], above 100 µM; in assay [5], 64.9 µM. Besides, the TGI in [6], in assay [7] and in assay [8] was above 100 µM in each case.
On to `Cc1nnc2n1-c1ccccc1N(Cc1ccccc1)CC2`, for which the TGI in assay [1], in assay [3], in assay [4], in assay [10], in [5] and in assay [6] was above 100 µM throughout. In addition, the TGI in assay [7], in [8] and in assay [9] was above 100 µM throughout.
Take `COC(=O)C1=C(C(=O)OC)SC(=C2SC3=C(SC(=C4SCCS4)S3)S2)S1`: the TGI in assay [1] is above 100 µM; in assay [2] it was above 100 µM; in assay [3], above 100 µM; in assay [4], above 100 µM; in assay [5], 6.86 µM; in assay [6], above 100 µM. Moreover, the TGI in assay [7], in assay [8] and in assay [9] was above 100 µM each time.
`N#Cc1nc(CCCN2C(=O)c3ccccc3C2=O)oc1N`: the TGI in assay [1], in [2], in assay [3], in assay [4], in [10] and in assay [6] was above 100 µM throughout. Also, the TGI in assay [7], in assay [8] and in [9] was above 100 µM throughout.
Turning to `O=C1NC(=S)NC(=O)C1C(c1ccc(Cl)cc1)C1C(=O)NC(=S)NC1=O`, the TGI in [1], in [2], in assay [3], in [4], in [6] and in [7] was above 100 µM each time. Further, the TGI in assay [8] and in assay [9] was above 100 µM in each case.
